Patent publication US20090191571A1 (priority 2005, published 2009)

Molecular target: PrP^Sc (Mus musculus, UniProt P04925)
Sequence (P04925 23-230 limits assumed): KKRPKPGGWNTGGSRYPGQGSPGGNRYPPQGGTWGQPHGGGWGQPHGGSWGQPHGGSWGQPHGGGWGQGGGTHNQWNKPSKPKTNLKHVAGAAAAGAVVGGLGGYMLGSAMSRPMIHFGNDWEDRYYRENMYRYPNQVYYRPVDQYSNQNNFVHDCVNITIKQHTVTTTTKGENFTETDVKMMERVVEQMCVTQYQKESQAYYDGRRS

## (GGG)KKRPKPGG [SEQ ID NO:68]
  binding to PrP^Sc, Western blotting (FIG. 4, lane 5): strong binding
